Results: ChEMBL document CHEMBL1153661, “Antiviral optically pure dioxolane purine nucleosides analogues” (Bioorg Med Chem Lett, 1993)

Assays:
[1] = test system: MT4; experiment: Compound was tested for cytotoxicity against MT-4 cells (MT-4, RF strain of HIV-1); Compound was found non cytotoxic; format: functional, cell-based; conditions: Homo sapiens
[2] = test system: MT4; experiment: Compound was tested for inhibitory activity against HIV in whole cell assay (MT-4, RF strain of HIV-1 at a concentration up to […]); IA: Found inactive; format: functional, cell-based, Homo sapiens
[3] = test system: MT4; experiment: Compound was tested for cytotoxicity against MT-4 cells (MT-4, RF strain of HIV-1); format: functional; conditions: Homo sapiens, read-out: CD50 (the source's name)
[4] = Compound was tested for inhibitory activity against HIV in human peripheral blood mononuclear (PBM, LAV strain of HIV-l) cells; format: functional, cell-based
[5] = test system: MT4; experiment: Compound was tested for inhibitory activity against HIV in whole cell assay (MT-4, RF strain of HIV-1 at a concentration up to […]); format: functional, cell-based; conditions: Homo sapiens
[6] = Compound was tested for cytotoxicity against human peripheral blood mononuclear (PBM, LAV strain of HIV-l) cells; format: functional; conditions: read-out: CD50 (the source's name)

In the case of `Nc1nc(O)c2ncn([C@@H]3CO[C@H](CO)O3)c2n1`, the CD50 [1] is reported as “Non-toxic” and the IC50 [2] is reported as “Not Active”.
In the case of `Nc1nc2c(ncn2[C@H]2CO[C@@H](CO)O2)c(=O)[nH]1`, the CC50 [3] is reported as greater than 425 µM, the IC50 [4] is reported as 0.03 µM and the IC50 [5] is reported as 10.7 µM. It also gave a CC50 [6] greater than 100 µM.
